Experimental data reported in PubChem BioAssay AID1053163 (Broad Institute, 2014).

Test system: HepG2 + U0126, LDLR mRNA qRT-PCR, 6 h
Assay: LDLR mRNA induction under MEK blockade, late-stage follow-up, mechanism study for Trib1 inducer project, cell-based, HepG2, U0126, RT-PCR (AID 1053163)
Conditions: active compounds read high

SMILES	LDLR mRNA fold induction
CN1C(=O)c2cc(NC(=O)c3ccc(C(F)(F)F)cc3)ccc2OC[C@@H]2O[C@@H](CC(=O)NC3Cc4ccccc4C3)CC[C@@H]21	10
CN1C(=O)c2cc(NC(=O)c3ccc(C(F)(F)F)cc3)ccc2OC[C@@H]2O[C@H](CC(=O)NC3Cc4ccccc4C3)CC[C@@H]21	2.5
